According to US20260262643A1, “HERBICIDAL BENZOXAZINES” (FMC CORPORATION, priority 2022, published 2026):

Columns and labels:
ragweed [1] = experiment: Test C preemergence; type: in vivo, Ambrosia artemisiifolia; details: Preemergence, 1000 g ai/ha; visual rating after 10 days, 0 to 100 scale (0 no effect, 100 complete control)
Excerpt: (§1) Seeds of plant species selected from barnyardgrass (Echinochloa crusgalli), blackgrass (Alopecurus myosuroides), corn (Zea mays), foxtail, giant (giant foxtail, Setaria faberi), green foxtail (Setaria viridis), goosegrass (Eleusine indica), kochia (Bassia scoparia), oat, wild (wild oat, Avena fatua), pigweed, palmer (palmer amaranth, palmer pigweed, Amaranthus palmeri), Pigweed, Redroot (redroot pigweed, Amaranthus retroflexus), ragweed (common ragweed, Ambrosia artemisiifolia), ryegrass, Italian ([…] ryegrass, Lolium multiflorum), soybean (Glycine max), and wheat (Triticum aestivum) were planted into a blend of loam soil and sand and treated preemergence with a directed soil spray using test chemicals formulated in a non-phytotoxic solvent mixture which included a surfactant. At the same time, plants selected from these crops and weed species and also galium (catchweed bedstraw, Galium aparine) and horseweed (Erigeron canadensis) were planted in pots containing the same blend of loam soil and sand and treated with postemergence applications of test chemicals formulated in the same manner. Plants ranged in height from 2 to 10 cm and were in the one- to two-leaf stage for the postemergence treatment. Treated plants and untreated controls were maintained in a greenhouse for 10 days, after which time all treated plants were compared to untreated controls and visually evaluated for injury. Plant response ratings, summarized in Table C, are based on a 0 to 100 scale where 0 is no effect and 100 is complete control. A dash (-) response means no test result.

kochia [2] = experiment: Test C preemergence; type: in vivo, Bassia scoparia; details: Preemergence, 1000 g ai/ha; visual rating after 10 days, 0 to 100 scale (0 no effect, 100 complete control)
Excerpt: as §1

barnyardgrass [3] = experiment: Test C preemergence; type: in vivo, Echinochloa crusgalli; details: Preemergence, 1000 g ai/ha; visual rating after 10 days, 0 to 100 scale (0 no effect, 100 complete control)
Excerpt: as §1

kochia [4] = experiment: Test C postemergence; type: in vivo, Bassia scoparia; details: Postemergence, 1000 g ai/ha
Excerpt: as §1

ryegrass, Italian [5] = experiment: Test C postemergence; type: in vivo, Lolium multiflorum; details: Postemergence, 1000 g ai/ha
Excerpt: as §1

ragweed [6] = experiment: Test C postemergence; type: in vivo, Ambrosia artemisiifolia; details: Postemergence, 1000 g ai/ha
Excerpt: as §1

green foxtail [7] = experiment: Test C postemergence; type: in vivo, Setaria viridis; details: Postemergence, 1000 g ai/ha
Excerpt: as §1

ryegrass, Italian [8] = experiment: Test C preemergence; type: in vivo, Lolium multiflorum; details: Preemergence, 1000 g ai/ha; visual rating after 10 days, 0 to 100 scale (0 no effect, 100 complete control)
Excerpt: as §1

horseweed = experiment: Test C postemergence; type: in vivo, Erigeron canadensis; details: Postemergence, 1000 g ai/ha
Excerpt: as §1

pigweed, palmer [9] = experiment: Test C postemergence; type: in vivo, Amaranthus palmeri; details: Postemergence, 1000 g ai/ha
Excerpt: as §1

galium = experiment: Test C postemergence; type: in vivo, Galium aparine; details: Postemergence, 1000 g ai/ha
Excerpt: as §1

barnyardgrass [10] = experiment: Test C postemergence; type: in vivo, Echinochloa crusgalli; details: Postemergence, 1000 g ai/ha
Excerpt: as §1

pigweed, palmer [11] = experiment: Test C preemergence; type: in vivo, Amaranthus palmeri; details: Preemergence, 1000 g ai/ha; visual rating after 10 days, 0 to 100 scale (0 no effect, 100 complete control)
Excerpt: as §1

blackgrass [12] = experiment: Test C postemergence; type: in vivo, Alopecurus myosuroides; details: Postemergence, 1000 g ai/ha
Excerpt: as §1

blackgrass [13] = experiment: Test C preemergence; type: in vivo, Alopecurus myosuroides; details: Preemergence, 1000 g ai/ha; visual rating after 10 days, 0 to 100 scale (0 no effect, 100 complete control)
Excerpt: as §1

green foxtail [14] = experiment: Test C preemergence; type: in vivo, Setaria viridis; details: Preemergence, 1000 g ai/ha; visual rating after 10 days, 0 to 100 scale (0 no effect, 100 complete control)
Excerpt: as §1

[15] = 10 days, visual 0 to 100 scale (0 no effect, 100 complete control)
[16] = 0 to 100 scale, 0 no effect, 100 complete control

Structure (SMILES)	Plant response rating, Ragweed (ragweed [1])	Plant response rating, Kochia (kochia [2])	Plant response rating, Barnyardgrass (barnyardgrass [3])	Plant response rating, Kochia (kochia [4]; [15])	Plant response rating, Ryegrass, Italian (ryegrass, Italian [5]; [15])	Plant response rating, Ragweed (ragweed [6]; [15])	Plant response rating, Foxtail, Green (green foxtail [7]; [15])	Plant response rating, Ryegrass, Italian (ryegrass, Italian [8])	Plant response rating, Horseweed (horseweed; [15])	Plant response rating, Pigweed, Palmer (pigweed, palmer [9]; [15])	Plant response rating, Galium (galium; [15])	Plant response rating, Pigweed, Palmer (pigweed, palmer [11])	Plant response rating, Blackgrass (blackgrass [12]; [15])	Plant response rating, Blackgrass (blackgrass [13])	Plant response rating, Foxtail, Green (green foxtail [14])	Plant response rating, Barnyardgrass (barnyardgrass [10]; [16])	other results
C[C@H]1CN(C(=O)c2cccc(-c3ccc(Cl)nc3)c2)c2cccc(Cl)c2O1 [Compound 383]	0	0	0	50	0	0	0	0	0	50	0	10	10	0	20		Plant response rating, Barnyardgrass (barnyardgrass [10]; [15]): 10
Cc1ccc(-c2cccc(C(=O)N3C[C@H](C)Oc4c(Cl)cccc43)c2)o1 [Compound 204]	0	20	0					40				10		0	0	0	Plant response rating, Kochia (kochia [4]; [16]): 0; Plant response rating, Ryegrass, Italian (ryegrass, Italian [5]; [16]): 0; Plant response rating, Ragweed (ragweed [6]; [16]): 20; Plant response rating, Foxtail, Green (green foxtail [7]; [16]): 0; Plant response rating, Horseweed (horseweed; [16]): 0; Plant response rating, Pigweed, Palmer (pigweed, palmer [9]; [16]): 10; Plant response rating, Galium (galium; [16]): 50; Plant response rating, Blackgrass (blackgrass [12]; [16]): 0
Cc1cccc2c1O[C@@H](C)CN2C(=O)c1cccc(-n2cnc(Cl)c2)c1 [Compound 304]	0	10	60	40	0	0	20	90	0	20	70	70	30	70	100		Plant response rating, Barnyardgrass (barnyardgrass [10]; [15]): 10
Cc1ncc(-c2cccc(C(=O)N3C[C@H](C)Oc4c(C)cccc43)c2)cn1 [Compound 161]	80	30	50					80				0		0	70	10	Plant response rating, Kochia (kochia [4]; [16]): 30; Plant response rating, Ryegrass, Italian (ryegrass, Italian [5]; [16]): 20; Plant response rating, Ragweed (ragweed [6]; [16]): 50; Plant response rating, Foxtail, Green (green foxtail [7]; [16]): 10; Plant response rating, Horseweed (horseweed; [16]): 10; Plant response rating, Pigweed, Palmer (pigweed, palmer [9]; [16]): 0; Plant response rating, Galium (galium; [16]): 50; Plant response rating, Blackgrass (blackgrass [12]; [16]): 50
Cc1cc(-c2cccc(C(=O)N3C[C@H](C)Oc4c(C)cccc43)c2)cnn1 [Compound 209]	0	0	0	0	0	0	0	30	20	0	40	0	0	0	0	0	
Cc1cc(-c2cccc(C(=O)N3C[C@H](C)Oc4c(C)cccc43)c2)cs1 [Compound 246]		0	0	20	0	30	0	30	30	0	0	0	0	0	0	0	
Cc1csc(-c2cccc(C(=O)N3C[C@H](C)Oc4c(C)cccc43)c2)c1 [Compound 245]		0	20	0	0	10	0	60	30	0	0	20	0	0	30	0	
Cc1cccc2c1O[C@@H](C)CN2C(=O)c1cccc(-c2cn(C)nn2)c1 [Compound 247]	0	0	0	0	0	0	30	30	20	10	20		0	0	0	10	
